Earlier results on one compound are cited in patent US6316468A, “Phenylindole derivatives as 5-HT2A receptor antagonists” (Merck Sharp & Dohme Ltd., priority 1997, dated 2001).

Data set [1] deals with apomorphine-induced stereotyped behaviour. The conditions noted are these: animal models, preclinical studies.
The conditions of data set [2]: schizophrenic patients, multicentre, placebo-controlled study.
Data set [3] deals with human dopamine D2 receptor.

Regarding `COc1cccc(C(O)C2CCN(CCc3ccc(F)cc3)CC2)c1OC` (single isomer, unassigned) [MDL-100,907, (+)-α-(2,3-dimethoxyphenyl)-1-[2-(4-fluorophenyl)-ethyl]-4-piperidinemethanol], in data set [1], the “block of apomorphine-induced stereotyped behaviour” value is recorded as “failed to block apomorphine-induced stereotyped behaviour”. Further, the “efficacy for antipsychotic potential” value in data set [2] is reported as “demonstrated efficacy”. Also, the “antagonism of human 5-HT2A receptors” value in the data set with human 5-HT2A receptors was “potent antagonist”. Also, in data set [3], the “activity at the human dopamine D2 receptor” value is reported as “essentially devoid of activity”.
